Results as given in US20080033040A1, “Methods And Compositions For Screening Involving Endothelial Cells Under Shearing Conditions” (priority 2004, published 2008).
Where “and” joins values, the source holds several entries; their conditions need not be identical. Equal entries are not always repeated. Where two headings read alike, the source gives them in different places.

How the values were obtained:
[1] = test system: Porcine aortic endothelial cells (PAEC); details: shear 24.4 ml/min (2.2 dynes/cm2), 100 μM H2O2, 1.5 hours
Protocol: The flow system provided for oscillatory, laminar flow across the sample. […] Due to these factors, an increase in concentration to 100 μM H2O2 was necessary for experimentation under shearing conditions.
An Immunetics flow cell (Li et al., 1996) was prepared by first flushing the fluid path with deionized water and then phenyl red free M199. After flushing, 50 ml of the circulating medium was added and allowed to perfuse for 5 minutes while warming to 37° C. PAEC were then placed in the flow cell and the flow cell was secured to the microscope stage. Endothelial cells were maintained at 37° C. by fluid flow through a water bath (Precision, Winchester, Va.), at a flow rate of 24.4 ml/min (2.2 dynes/cm2), for 1.5 hours under 100 μM H2O2 in circulating medium. The PAEC not exposed to H2O2 were subjected to the same flow rate in serum free and phenyl red free M199 without H2O2. […] The experiment was conducted under constant imaging, with images being captured at 0, 15, 30, 60, and 90 minutes. […] All fluorescent images were acquired with phenyl red free media to eliminate interference of phenyl red and FBS in fluorescent imaging.

PAEC [2] = details: 500 μM H2O2, 1 hour
Protocol: PAEC were cultured and infected as previously described. Forty-eight hours after infection, PAEC were incubated for 1 hour under 500 μM H2O2 in serum-free M199; control groups were incubated in serum-free M199. […] After incubation, 3 μM propidium iodide (PI) was added to each sample and incubated for 8 minutes. Samples were then washed with serum-free M199 and imaged at an exposure of 2500 ms. All fluorescent images were acquired in phenyl-red free media.

PAEC [3] = test: Determination of intracellular superoxide by DHE, static culture (Example 2); type: cell-based, Porcine; details: for % of cells with fluorescent nuclei, hydrogen peroxide exposed sample with inhibitor: 60 μM H2O2; for % of cells with fluorescent nuclei, hydrogen peroxide exposed sample with inhibitor / % cells with fluorescent nuclei, control sample cultured with inhibitor: apocynin 0.25 μM; for % cells with fluorescent nuclei, control sample cultured with inhibitor: no H2O2
Protocol: Adenoviral-mediated gene transfer was conducted by infection of endothelial cells (85-95% confluence, University of Iowa Cardiovascular Research Center Cell Culture Facility) as previously described (Fang et al., 1998). Ad5CMVSOD2, Ad5CMVeNOS, and Ad5CMVeGFP were acquired from the University of Iowa Gene Transfer Vector Core (REF); Ad5CMVeGFP was used as a negative control. Porcine aortic endothelial cells were incubated with 125 PFU/cell MnSOD/eNOS/eGFP adenovirus in serum-free M199. To improve the efficiency of adenoviral uptake, the adenoviral stock was incubated for 30 minutes prior to addition to cell cultures (Kossila et al., 2002). Infected PAEC were incubated under standard conditions. After 3 hours, the virus-containing solution was removed, samples were washed with serum-free M199, and M199 supplemented with 1% Penicillin-Streptomycin and 2% FBS was added. After 45 hours of incubation (48 hours after initiation of infection) cells were prepared for experimentation.
Incubation continued for an additional 30 minutes with 2 μM dihydroethidium (Miller et al., 1998; Carter et al., 1994) (DHE, Molecular Probes). […] Images were captured using a Zeiss Axiovert S100 fluorescent microscope. Images were collected at a standard exposure of 4500 ms.
Image analysis was conducted with Slidebook 4 Imaging Software (company). Statistical analyses were conducted using the Student's t-Test assuming unequal variance. Values are reported as mean±standard error of the mean (SEM).

PAEC [4] = type: cell-based, Porcine
Protocol: An Immunetics cell adhesion chamber (Cambridge, Mass.) was utilized to determine PAEC behavior under shearing conditions. […] PAEC were exposed to a constant flow rate of 24.4 ml/min (2.2 dynes/cm^2) for 1.5 hours. Maintenance of PAEC at 37° C. was achieved by using a fluid reservoir contained in a constant temperature water bath (Precision). Challenged PAEC were exposed to 100 μM H2O2 in serum-free and phenyl red free M199; control PAEC were exposed to serum-free and phenyl red free M199 without H2O2.
After 1 hour of incubation, 2 μM dihydroethidium was added to the media reservoir.
Hydroethidium was used to examine superoxide production of infected and non-infected PAEC under H2O2 induced oxidative stress. PAEC on glass slides were subjected to laminar flow at 24.4 ml/min (2 dynes/cm^2). The circulating fluid contained 2 μM dihydroethidium as a marker for superoxide production.

[5] = test system: Porcine aortic endothelial cells (PAEC); details: static
PAEC [6] = test: L-NAME inhibition of eNOS, superoxide by DHE, static; type: cell-based, Porcine
Protocol: In order to ascertain the role of eNOS in endothelial cell superoxide production, the presence of superoxide was probed in the presence of L-NAME. […] After incubation, 2 μM DHE was added to each sample and incubated for 30 minutes. […] Image analysis was conducted with Slidebook 4 Imaging Software (company). Statistical analyses were conducted using the Student's t-Test assuming unequal variance. Values are reported as mean±standard error of the mean (SEM).

PAEC [7] = test: Nitric oxide production (Greiss assay, DAF-FM diacetate staining); type: cell-based, Porcine; details: H2O2 exposure, limited length of experimentation
Text: Nitric oxide production was quantified via Greiss assay and intracellular staining with DAF-FM diacetate.

PAEC [8] = test: Determination of eNOS couple state with ascorbic acid, superoxide by DHE, static; type: cell-based, Porcine; details: 60 μM H2O2, 1 mM ascorbic acid
Protocol: In order to ascertain the role of the coupled state of eNOS in endothelial cell superoxide production, the presence of superoxide was probed in the presence of ascorbic acid. […] After incubation, 2 μM DHE was added to each sample and incubated for 30 minutes.

In the case of `OO` [H2O2, hydrogen peroxide], the “% of PAEC exposed to H2O2 demonstrating intracellular superoxide” value [1] is reported as 49.5±3.3%, the “percent of cells with ruptured cellular membranes” value (PAEC [2]) is reported as “ten” and the “percent propidium iodide positive cells, challenged PAEC” value (PAEC [2]) is reported as “more than ninety”. The “fold increase in percent of superoxide producing cells, control vs H2O2 stressed” value (PAEC [3]; static culture) was 10 fold, the “% of cells having fluorescent nuclei” value (PAEC [3]; static, H2O2 challenged PAEC (60 μM H2O2)) was 51.8±1.1% and the “% of cells with fluorescent nuclei, challenged PAEC (non-infected)” value (PAEC [4]) was 50.3±4.1%. The “fold increase in percent of superoxide producing cells, non-infected control vs H2O2 stressed” value (PAEC [4]) was 30 fold, the “% of PAEC exposed to H2O2 demonstrating intracellular superoxide” value ([5]; 3 μM H2O2, 1.5 hour exposure, 2.0 μM DHE) was 1.2±0.2% and the “% of PAEC found to produce intracellular superoxide” value ([5]; 30 μM H2O2, 1.5 hour exposure, 2.0 μM DHE) was 77.1±5.5%. For the same compound, the “% of PAEC exhibiting fluorescent nuclei” value ([5]; 1 mM H2O2) was 76.1±6.8%, the “cell membrane integrity of PAEC” value ([5]; increasing H2O2 concentration, most notably at 1 mM) was “loss in cell membrane integrity in a dose dependant manner” and the “% cells with fluorescent nuclei, challenged non-inhibited group” value (PAEC [6]; 60 μM H2O2, no L-NAME) was 23.8±3.8%. For the same compound, the “NO production (DAF-AM acetate intracellular staining)” value (PAEC [7]) was “no significant increases”.
For `COC(=O)[C@@H](N)CCCNC(=N)N[N+](=O)[O-]` [L-NAME, N^G-nitro-L-arginine methyl ester], the “% cells with fluorescent nuclei, control with eNOS inhibition” value (PAEC [6]; no H2O2, 1 mM L-NAME) was 2.2±0.5% and 2.9±0.3%.
With `Oc1ncnc2[nH]ncc12` [allopurinol] the “% of cells with fluorescent nuclei, hydrogen peroxide exposed sample with inhibitor” value (“% of cells … with inhibitor” below) (PAEC [3]; static) was 35.6±1.3% and the “% cells with fluorescent nuclei, control sample cultured with inhibitor” value (shortened to “% cells with fluorescent nuclei … with inhibitor”) (PAEC [3]; static) was 4.1±0.4%.
In the case of `COc1cc(C(C)=O)ccc1O` [apocynin, Apocynin], the “effect on superoxide production” value (PAEC [3]; apocynin 0.5 mM) is reported as “minimal effects”, the “% of cells … with inhibitor” value (PAEC [3]; static) is reported as 35.1±2.0% and the “% cells with fluorescent nuclei … with inhibitor” value (PAEC [3]; static) is reported as 14.2±1.3%.
In the case of `O=C1O[C@H]([C@@H](O)CO)C(O)=C1O` [ascorbic acid, Ascorbic Acid], the “superoxide production in presence of ascorbic acid” value (PAEC [8]) is reported as “almost completely inhibited”.
For `CC(C(=O)O)c1ccc(-c2ccccc2)c(F)c1` (stereo not shown) [flurbiprofen], the “% of cells … with inhibitor” value (PAEC [3]; static) was 46.8±1.4% and the “% cells with fluorescent nuclei … with inhibitor” value (PAEC [3]; static) was 3.9±0.4%.
